Active and inactive are the calls of the source. The rule behind the calls is not given here.
Tested on: CCRIS mutagenicity, Ames/micronucleus/aberration tests
Test: CCRIS mutagenicity studies
[1] = Test System: AMES SALMONELLA TYPHIMURIUM, Strain/Indicator: TA98, Metabolic Activation: NONE, Method: STANDARD PLATE
[2] = Test System: AMES SALMONELLA TYPHIMURIUM, Strain/Indicator: TA98, Metabolic Activation: RAT, LIVER, S-9, AROCLOR 1254, Method: STANDARD PLATE
[3] = Test System: AMES SALMONELLA TYPHIMURIUM, Strain/Indicator: TA100, Metabolic Activation: NONE, Method: STANDARD PLATE
[4] = Test System: AMES SALMONELLA TYPHIMURIUM, Strain/Indicator: TA100, Metabolic Activation: RAT, LIVER, S-9, AROCLOR 1254, Method: STANDARD PLATE
[5] = Test System: AMES SALMONELLA TYPHIMURIUM, Strain/Indicator: TA1537, Metabolic Activation: NONE, Method: STANDARD PLATE
[6] = Test System: AMES SALMONELLA TYPHIMURIUM, Strain/Indicator: TA1538, Metabolic Activation: NONE, Method: STANDARD PLATE
[7] = Test System: AMES SALMONELLA TYPHIMURIUM, Strain/Indicator: TA1538, Metabolic Activation: RAT, LIVER, S-9, AROCLOR 1254, Method: STANDARD PLATE
[8] = Test System: Ames Salmonella typhimurium, Strain/Indicator: TA102, Metabolic Activation: None, Method: Preincubation
[9] = Test System: AMES SALMONELLA TYPHIMURIUM, Strain/Indicator: TA98, Metabolic Activation: NONE, Method: PREINCUBATION
[10] = Test System: AMES SALMONELLA TYPHIMURIUM, Strain/Indicator: TA100, Metabolic Activation: NONE, Method: PREINCUBATION
[11] = Test System: AMES SALMONELLA TYPHIMURIUM, Strain/Indicator: TA100, Metabolic Activation: RAT, LIVER, S-9, PHENOBARBITAL, Method: PREINCUBATION
[12] = Test System: AMES SALMONELLA TYPHIMURIUM, Strain/Indicator: TA98, Metabolic Activation: RAT, LIVER, S-9, PCB, Method: PREINCUBATION
[13] = Test System: AMES SALMONELLA TYPHIMURIUM, Strain/Indicator: TA100, Metabolic Activation: RAT, LIVER, S-9, PCB, Method: PREINCUBATION
[14] = Test System: AMES SALMONELLA TYPHIMURIUM, Strain/Indicator: TA1535, Metabolic Activation: NONE, Method: STANDARD PLATE
[15] = Test System: AMES SALMONELLA TYPHIMURIUM, Strain/Indicator: TA1535, Metabolic Activation: RAT, LIVER, S-9, AROCLOR 1254, Method: STANDARD PLATE

SMILES: Nc1nc2ccc(O)cc2[nH]1
- mutagenic call (Test System: AMES SALMONELLA TYPHIMURIUM, Strain/Indicator: TA98, Metabolic Activation: RAT, LIVER, S-9, AROCLOR 1254, Method: PREINCUBATION): active; positive
- mutagenic call (Test System: AMES SALMONELLA TYPHIMURIUM, Strain/Indicator: TA100, Metabolic Activation: RAT, LIVER, S-9, AROCLOR 1254, Method: PREINCUBATION): inactive; negative

SMILES: CCN(CC[N+](C)(C)C)c1ccc(N=Nc2ccc([N+](=O)[O-])cc2Cl)cc1
- mutagenic call (Test System: AMES SALMONELLA TYPHIMURIUM, Strain/Indicator: TA98, Metabolic Activation: HAMSTER, LIVER, S-9, AROCLOR 1254, Method: STANDARD PLATE): active; positive
- mutagenic call (Test System: AMES SALMONELLA TYPHIMURIUM, Strain/Indicator: TA98, Metabolic Activation: HAMSTER, LIVER, S-9, Method: PREINCUBATION (PRIVAL METHOD)): active; positive
- mutagenic call [1]: active; positive
- mutagenic call [2]: active; positive
- mutagenic call (Test System: AMES SALMONELLA TYPHIMURIUM, Strain/Indicator: TA100, Metabolic Activation: HAMSTER, LIVER, S-9, AROCLOR 1254, Method: STANDARD PLATE): active; positive
- mutagenic call [3]: active; positive
- mutagenic call [4]: active; positive
- mutagenic call [5]: active; positive
- mutagenic call (Test System: AMES SALMONELLA TYPHIMURIUM, Strain/Indicator: TA1538, Metabolic Activation: HAMSTER, LIVER, S-9, AROCLOR 1254, Method: STANDARD PLATE): active; positive
- mutagenic call [6]: active; positive
- mutagenic call [7]: active; positive
- mutagenic call (Test System: Ames Salmonella typhimurium, Strain/Indicator: TA98, Metabolic Activation: None, Method: Preincubation): active; positive
- mutagenic call (Test System: Ames Salmonella typhimurium, Strain/Indicator: TA100, Metabolic Activation: None, Method: Preincubation): inactive; negative
- mutagenic call [8]: inactive; negative
- mutagenic call (Test System: Ames Salmonella typhimurium, Strain/Indicator: TA1535, Metabolic Activation: None, Method: Preincubation): inactive; negative
- mutagenic call (Test System: MOUSE LYMPHOMA, Strain/Indicator: L5178Y (TK+/TK-), Metabolic Activation: NONE, Method: SUSPENSION/PLATE): inactive; negative. reevaluation of results: negative
- mutagenic call (Test System: MOUSE LYMPHOMA, Strain/Indicator: L5178Y (TK+/TK-), Metabolic Activation: RAT, LIVER, S-9, AROCLOR 1254, Method: SUSPENSION/PLATE): active; positive. reevaluation of results: positive

SMILES: O=S(=O)(O)c1ccc2cc(O)c(S(=O)(=O)O)cc2c1
- mutagenic call [9]: inactive; negative
- mutagenic call (Test System: AMES SALMONELLA TYPHIMURIUM, Strain/Indicator: TA98, Metabolic Activation: RAT, LIVER, S-9, PHENOBARBITAL, Method: PREINCUBATION): inactive; negative
- mutagenic call [10]: inactive; negative
- mutagenic call [11]: inactive; negative

SMILES: COc1nsc2cc([N+](=O)[O-])ccc12
- mutagenic call [1]: active; positive

SMILES: C=CCn1cc2c3c(cccc31)C1C[C@@H](C)CN(C#N)[C@@H]1C2 (stereo partly specified)
- mutagenic call [4]: active; positive

SMILES: N#Cc1cc([N+](=O)[O-])ccc1N
- mutagenic call [9]: active; positive
- mutagenic call (Test System: AMES SALMONELLA TYPHIMURIUM, Strain/Indicator: TA98, Metabolic Activation: RAT, LIVER, S-9, PHENOBARBITAL AND BETA-NAPHTHOFLAVONE, Method: PREINCUBATION): active; positive
- mutagenic call [10]: active; positive
- mutagenic call (Test System: AMES SALMONELLA TYPHIMURIUM, Strain/Indicator: TA100, Metabolic Activation: RAT, LIVER, S-9, PHENOBARBITAL AND BETA-NAPHTHOFLAVONE, Method: PREINCUBATION): active; positive

SMILES: Nc1ccc(Oc2cccc(Oc3ccc(N)cc3)c2)cc1
- mutagenic call [9]: inactive; negative
- mutagenic call [12]: active; positive
- mutagenic call [10]: inactive; negative
- mutagenic call [13]: active; positive

SMILES: C1CCCC2OC2CC1 (stereo unspecified)
- mutagenic call [3]: inactive; negative
- mutagenic call [4]: inactive; negative
- mutagenic call [14]: inactive; negative
- mutagenic call [15]: inactive; negative
- mutagenic call (Test System: UDS RAT HEPATOCYTES, Strain/Indicator: THY INCORP, Metabolic Activation: NONE): inactive; negative

SMILES: CC1(C)[C@H](C(=O)O[C@H](C#N)c2cccc(Oc3ccccc3)c2)[C@@H]1C=C(Cl)Cl
- mutagenic call (End Point: In vitro micronucleus, Test System: Human peripheral blood lymphocytes): active; positive. commercial product containing 10% alpha-cypermethrin in xylene emulsi

SMILES: Cn1c(NO)nc2ncc(-c3ccccc3)cc21
- mutagenic call (Test System: AMES SALMONELLA TYPHIMURIUM, Strain/Indicator: TA98(1,8-DNP6), Metabolic Activation: NONE, Method: STANDARD PLATE): active; positive
- mutagenic call [1]: active; positive
- mutagenic call [2]: active; positive

SMILES: Cc1cc(C)c(CN2C3c4ccccc4-c4ccccc4C32)c(C)c1 (stereo unspecified)
- mutagenic call [3]: active; positive

SMILES: COc1cc(O[C@@H]2O[C@H](CO)[C@@H](O)[C@H](O)[C@H]2O)c2c(=O)c3c(O)ccc(O)c3oc2c1
- mutagenic call (Test System: AMES SALMONELLA TYPHIMURIUM, Strain/Indicator: TA97, Metabolic Activation: RAT, LIVER, S-9, PHENOBARBITAL AND 5,6-BENZOFLAVONE, BETA-GLUCOSIDASE, Method: PREINCUBATION): active; positive
- mutagenic call (Test System: AMES SALMONELLA TYPHIMURIUM, Strain/Indicator: TA98, Metabolic Activation: RAT, LIVER, S-9, PHENOBARBITAL AND 5,6-BENZOFLAVONE, BETA-GLUCOSIDASE, Method: PREINCUBATION): inactive; negative
- mutagenic call (Test System: AMES SALMONELLA TYPHIMURIUM, Strain/Indicator: TA100, Metabolic Activation: RAT, LIVER, S-9, PHENOBARBITAL AND 5,6-BENZOFLAVONE, BETA-GLUCOSIDASE, Method: PREINCUBATION): active; positive
- mutagenic call (Test System: AMES SALMONELLA TYPHIMURIUM, Strain/Indicator: TA2637, Metabolic Activation: RAT, LIVER, S-9, PHENOBARBITAL AND 5,6-BENZOFLAVONE, BETA-GLUCOSIDASE, Method: PREINCUBATION): active; positive

SMILES: O=C(O[C@H]1Cc2c(O)cc(O)cc2O[C@H]1c1ccc(O)c(O)c1)c1cc(O)c(O)c(O)c1
- mutagenic call [8]: inactive; negative
- mutagenic call (Test System: Ames Salmonella typhimurium, Strain/Indicator: TA102, Metabolic Activation: Rat, Liver, S-9, Aroclor 1254 in 0.154 M KCl, Method: Preincubation): inactive; negative

SMILES: COC(=O)[C@@]12Oc3ccc(-c4ccc5c(c4O)C(O)=C4C(=O)C[C@H](C)[C@@H](O)[C@]4(C(=O)OC)O5)c(O)c3C(O)=C1C(=O)C[C@H](C)[C@H]2O
- mutagenic call [10]: inactive; negative
- mutagenic call [11]: inactive; negative

SMILES: COc1c(N)cc(C)c(N)c1C
- mutagenic call [1]: inactive; negative
- mutagenic call [2]: inactive; negative
- mutagenic call [3]: inactive; negative
- mutagenic call [4]: inactive; negative
- mutagenic call [14]: inactive; negative
- mutagenic call [15]: inactive; negative
- mutagenic call [5]: inactive; negative
- mutagenic call (Test System: AMES SALMONELLA TYPHIMURIUM, Strain/Indicator: TA1537, Metabolic Activation: RAT, LIVER, S-9, AROCLOR 1254, Method: STANDARD PLATE): inactive; negative
- mutagenic call [6]: inactive; negative
- mutagenic call [7]: inactive; negative

SMILES: C[Si](C)(C)N=[N+]=[N-]
- mutagenic call [10]: active; positive
- mutagenic call [13]: active; positive

SMILES: Cn1c(N)nc2c3ccncc3ccc21
- mutagenic call [2]: active; positive

SMILES: O=C/C(CCl)=C(/Cl)C(=O)O
- mutagenic call [9]: active; positive
- mutagenic call [10]: active; positive
- mutagenic call (Test System: AMES SALMONELLA TYPHIMURIUM, Strain/Indicator: TA104, Metabolic Activation: NONE, Method: PREINCUBATION): active; positive

SMILES: CC(N)CCN (stereo unspecified)
- mutagenic call [9]: inactive; negative
- mutagenic call [12]: inactive; negative
- mutagenic call [10]: inactive; negative
- mutagenic call [13]: inactive; negative
